This is an account of results in patent publication US4426524A, “Heterocyclic substituted benzyl alcohol, insecticidal ester derivatives, and intermediates” (priority 1982, dated 1984).

Data set [1] deals with southern armyworm. The data set can be described thus: Topical application, southern armyworm. It counts as in vivo, Spodoptera eridania. Conditions: SAW. The procedure:
(§1) Topical Application: The compounds of this invention were tested for insecticidal activity against various insect species selected from southern armyworm (Spodoptera eridania), Mexican bean beetle, (Epilachna varivestis), milkweed bug (Oncopeltus fasciatus), and cabbage looper (Tricoplusia ni) by applying to the second or third dorsal thoracic segment of each larvae a one microliter droplet containing 5 mg/mL of test compound in acetone (5000 ng/insect). The test was allowed to stand 24 hours after application and was then read to determine the percent kill.
(§2) To determine the LD50 of the compounds, the topical application test was repeated by applying various amounts of toxicant. Also included among the species tested against for this determination were tobacco budworm (Heliothis virescens), beet armyworm (Spodoptera exigua), and boll weevil (Anthonomus grandis).

The test system of another data set is pea aphid. The data set is described as follows: Foliar application, pea aphid. Conditions: Acyrthosiphon pisum; PA, foliar, 512 ppm, 48 hours; read-out: Foliar % Kill (ppm). It counts as in vivo. As for the experimental part: (§3) Foliar Application: The activity of some of the compounds of the invention against various test species selected from pea aphid (Acyrthosiphon pisum), twospotted spider mite (Tetranychus urticae), southern armyworm (Spodoptera eridania), Mexican bean beetle (Epilachna varivestis), and cabbage looper (Tricoplusia ni) was determined by foliar application of the test compound. The test materials were formulated as aqueous solutions containing 10% acetone and 0.25% acetylphenoxypolyethoxyethanol. Activity against pea aphid was determined on English fava bean plants the leaves of which were sprayed to runoff with various concentrations of test solution prior to infestation with adult aphids. Activity against twospotted spider mite was evaluated on pinto bean plants whose leaves were sprayed to runoff with various concentrations of test solution after infestation with adult mites. Activity against the remaining species was evaluated on pinto bean plants whose leaves were sprayed to runoff with various concentrations of test solution before infestation with the appropriate immature insects. Mortality was read approximately 48 hours after treatment.

Data set [2] concerns milkweed bug. The data set can be described thus: Topical application, milkweed bug. It counts as in vivo, Oncopeltus fasciatus. Conditions: MWB. As for the experimental part:
as §1, §2

The test system of another data set is Mexican bean beetle. The data set can be described thus: Topical application, Mexican bean beetle. It counts as in vivo, Epilachna varivestis. The conditions noted are these: MBB. As for the experimental part: as §1, §2
For data set [3], the system named is cabbage looper. The data set can be described thus: Foliar application, cabbage looper. It counts as in vivo, Tricoplusia ni. Conditions: Trichoplusia ni, CL, 24 ppm, 48 hours, read-out: Foliar % Kill (ppm). The procedure:
as §3

For data set [4], the system named is milkweed bug. The data set is described as follows: Foliar application, milkweed bug. It counts as in vivo. The conditions noted are these: Oncopeltus fasciatus, MWB, 48 hours, read-out: Foliar % Kill (ppm).
For the next data set, the system named is tobacco budworm. The data set can be described thus: Topical application, tobacco budworm. It counts as in vivo, Heliothis virescens. Conditions: TBW. As for the experimental part: as §1, §2
For the next data set, the system named is boll weevil. The data set can be described thus: Topical application, boll weevil. It counts as in vivo, Anthonomus grandis. The conditions noted are these: BW. The procedure: as §1, §2
The subject of data set [5] is cabbage looper. The data set can be described thus: Topical application, cabbage looper. It counts as in vivo, Tricoplusia ni. The conditions noted are these: CL. As for the experimental part: as §1, §2
Data set [6] has as its system southern armyworm. The data set can be described thus: Foliar application, southern armyworm. Conditions: Spodoptera eridania; SAW, foliar, 512 ppm, 48 hours; read-out: Foliar % Kill (ppm). It counts as in vivo. The procedure: as §3
The test system of a further data set is twospotted spider mite. The data set can be described thus: Foliar application, twospotted spider mite. It counts as in vivo. Conditions: Tetranychus urticae; TSM, foliar, 512 ppm, 48 hours; read-out: Foliar % Kill (ppm). The procedure:
as §3

For `Cc1c(COC(=O)[C@H]2[C@@H](C=C(Cl)C(F)(F)F)C2(C)C)cccc1-c1cccs1` (relative stereo) [e, [2-methyl-3-(2-thienyl)phenyl]-methyl cis-3-(2-chloro-3,3,3-trifluoro-1-propenyl)-2,2-dimethylcyclopropanecarboxylate], the “Topical LD50” value was found to be 23 ng/insect in the data set with southern armyworm [1]; 72 ng/insect with milkweed bug [2]; 7 ng/insect in the data set on Mexican bean beetle; 43 ng/insect in the data set on tobacco budworm; 11 ng/insect with boll weevil; 74 ng/insect with cabbage looper [5]. Also, the “Topical % Kill @ 5000 ng/insect” value in the data set on southern armyworm [1] (5000 ng/insect, 24 hours) was determined as 100%; with milkweed bug [2] (5000 ng/insect, 24 hours), 100%; in the data set on Mexican bean beetle (5000 ng/insect, 24 hours) it was 100%. Further, the mortality at 512 ppm in the data set with pea aphid, in the data set with milkweed bug [4], in the data set on southern armyworm [6] and in the data set with twospotted spider mite was 100% throughout. Besides, the mortality at 24 ppm with cabbage looper [3] was 95%.
